Type in all cases: binding
The target of assay [1] is T1, PDZ protein (GST-PDZ fusion) (Homo sapiens, UniProt Q8NI35).
T1 construct: made in house; host or cells: E. coli (DH5alpha, BL21 or JM109)
Description: G' assay (10 uM PL peptide), results of TABLE 7 and TABLE 12. To be noted: PDZ INADL. In outline: (§1)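 Biotinylated PL peptides at 10 uM (vs 20 uM in G^0 assay) bound to GST-PDZ fusions; PDZ protein at 5 ug/ml unless another concentration listed. Bound peptide read as A450 nm, classified 0–5 (0 = A450 0; 5 = A450 >4 repeated).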

In assay [2] the target is T2, PDZ protein (GST-PDZ fusion) (Homo sapiens, UniProt P57105).
T2 construct: made in house; host or cells: E. coli (DH5alpha, BL21 or JM109)
T2 sequence (P57105 1-145): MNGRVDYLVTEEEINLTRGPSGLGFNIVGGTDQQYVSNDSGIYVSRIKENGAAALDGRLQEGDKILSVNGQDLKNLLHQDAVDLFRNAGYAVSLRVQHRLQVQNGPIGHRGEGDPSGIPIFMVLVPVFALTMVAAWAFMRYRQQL
The description is as above. To be noted: PDZ Outer Membrane, PDZ Domain 1. In outline: as §1

Assay [3] deals with T3, PDZ protein (GST-PDZ fusion) (Homo sapiens, UniProt O14907).
T3 construct: made in house; host or cells: E. coli (DH5alpha, BL21 or JM109)
T3 sequence (O14907 1-124): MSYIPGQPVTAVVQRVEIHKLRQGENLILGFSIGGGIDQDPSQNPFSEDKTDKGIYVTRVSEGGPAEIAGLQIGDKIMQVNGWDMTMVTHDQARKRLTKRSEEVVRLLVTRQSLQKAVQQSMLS
Described as above. To be noted: PDZ TIP1, PDZ Domain 1. In outline:
as §1

Assay [4] concerns the target T4, PDZ protein (GST-PDZ fusion) (Homo sapiens, UniProt Q12959).
T4 construct: made in house; host or cells: E. coli (DH5alpha, BL21 or JM109)
The assay is described as above. The gist of the method: as §1

Assay [5] deals with T5, PDZ protein (GST-PDZ fusion) (Homo sapiens, UniProt Q9NZN5).
T5 construct: made in house; host or cells: E. coli (DH5alpha, BL21 or JM109)
The assay is described as above. The note with it: PDZ KIAA0382, PDZ Domain 1. In outline: as §1

In assay [6] the target is T6, PDZ protein (GST-PDZ fusion) (Homo sapiens, UniProt Q86UL8).
T6 construct: made in house; host or cells: E. coli (DH5alpha, BL21 or JM109)
The assay is described as above. In outline:
as §1

The target in assay [7] is T7, KIAA0807(S) (PDZ Domain 1) (Homo sapiens, UniProt Q6P0Q8).
T7 construct: made in house; host or cells: E. coli (DH5alpha, BL21 or JM109)
T7 sequence (Q6P0Q8 with tags, fused parts or gaps): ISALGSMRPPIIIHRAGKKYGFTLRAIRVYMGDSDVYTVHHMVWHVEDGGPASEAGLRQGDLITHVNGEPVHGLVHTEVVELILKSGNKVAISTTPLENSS
Description: G' assay and Kd titration, TABLE 12. The note with it: A450 nm class of biotinylated PL peptide bound; 0 in conc columns = peptide 10 uM, protein 5 ug/ml. The procedure: The third column labeled “Peptide Optimal Concentration” in the tables is a number reflective of the binding interaction between the PL protein and PDZ protein. […] The column labeled “Protein Optimal Concentration” refers to the protein concentration used to assay PL interaction (in ug/ml); a ‘0’ is indicative of 5 ug/ml protein concentration; any other value represents the concentration (in ug/ml) used to determine the dissociation constant for a given interaction.
Finally, the seventh column labeled “Classification” is another measure of the level of binding. In particular, it provides an absorbance value at 450 nm which indicates the amount of PL peptide bound to the PDZ protein. The following numerical values have the following meanings: ‘1’—A450 nm 0-1; ‘2’—A450 nm 1-2; ‘3’—A450 nm 2-3; ‘4’—A450 nm 3-4; ‘5’—A450 nm of 4 more than 2× repeated; ‘0’—A450 nm 0, i.e., not found to interact. Thus, higher numbers indicate stronger interactions.
For convenience, the assay conditions described in this section are referred to as the “G′ assay” and the “G″ assay,” with the specific conditions described in the preceding section on G assays being referred to as the “G^0 assay.” The “G′ assay” is identical to the “G^0 assay” except at step (2) the peptide concentration is 10 uM instead of 20 uM.

Where [8] appears, read: PDZ Atrophin-1 Inter. Prot., PDZ Domain 5.
Setting [9] is: PDZ atrophin-1 interacting Protein, PDZ Domain 1.
Where [10] appears, read: PDZ atrophin-1 interacting Protein, PDZ Domain 3.

Ends that are not written are not given here. Peptide text beside a SMILES is read from it. * marks the point of attachment. Biotin = O=C1N[C@H]2[C@H](CS[C@H]2CCCCC(=O)*)N1

T4 sequence (Q12959 whole entry, the tested form may be a part): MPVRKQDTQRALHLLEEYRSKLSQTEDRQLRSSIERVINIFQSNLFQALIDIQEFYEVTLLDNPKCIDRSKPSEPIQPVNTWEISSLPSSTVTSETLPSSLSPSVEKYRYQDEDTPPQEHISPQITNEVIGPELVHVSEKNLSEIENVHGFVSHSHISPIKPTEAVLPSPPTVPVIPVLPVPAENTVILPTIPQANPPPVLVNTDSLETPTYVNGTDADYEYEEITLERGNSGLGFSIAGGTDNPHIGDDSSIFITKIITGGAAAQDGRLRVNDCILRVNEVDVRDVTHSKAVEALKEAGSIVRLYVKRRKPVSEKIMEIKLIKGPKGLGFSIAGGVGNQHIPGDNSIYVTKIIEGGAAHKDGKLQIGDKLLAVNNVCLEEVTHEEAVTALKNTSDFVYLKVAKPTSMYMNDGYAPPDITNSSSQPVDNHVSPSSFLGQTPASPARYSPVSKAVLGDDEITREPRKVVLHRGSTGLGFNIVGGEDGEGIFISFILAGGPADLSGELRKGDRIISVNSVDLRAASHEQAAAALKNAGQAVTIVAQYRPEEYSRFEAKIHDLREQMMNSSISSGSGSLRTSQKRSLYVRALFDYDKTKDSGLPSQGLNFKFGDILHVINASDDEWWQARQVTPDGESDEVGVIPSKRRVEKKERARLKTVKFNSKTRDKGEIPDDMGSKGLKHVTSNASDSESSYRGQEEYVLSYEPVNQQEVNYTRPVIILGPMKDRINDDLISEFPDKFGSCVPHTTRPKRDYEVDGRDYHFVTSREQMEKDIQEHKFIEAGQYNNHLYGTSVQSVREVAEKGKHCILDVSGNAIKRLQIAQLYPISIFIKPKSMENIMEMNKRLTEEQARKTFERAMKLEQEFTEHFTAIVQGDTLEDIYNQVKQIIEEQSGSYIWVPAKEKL
T6 sequence (Q86UL8 whole entry, the tested form may be a part): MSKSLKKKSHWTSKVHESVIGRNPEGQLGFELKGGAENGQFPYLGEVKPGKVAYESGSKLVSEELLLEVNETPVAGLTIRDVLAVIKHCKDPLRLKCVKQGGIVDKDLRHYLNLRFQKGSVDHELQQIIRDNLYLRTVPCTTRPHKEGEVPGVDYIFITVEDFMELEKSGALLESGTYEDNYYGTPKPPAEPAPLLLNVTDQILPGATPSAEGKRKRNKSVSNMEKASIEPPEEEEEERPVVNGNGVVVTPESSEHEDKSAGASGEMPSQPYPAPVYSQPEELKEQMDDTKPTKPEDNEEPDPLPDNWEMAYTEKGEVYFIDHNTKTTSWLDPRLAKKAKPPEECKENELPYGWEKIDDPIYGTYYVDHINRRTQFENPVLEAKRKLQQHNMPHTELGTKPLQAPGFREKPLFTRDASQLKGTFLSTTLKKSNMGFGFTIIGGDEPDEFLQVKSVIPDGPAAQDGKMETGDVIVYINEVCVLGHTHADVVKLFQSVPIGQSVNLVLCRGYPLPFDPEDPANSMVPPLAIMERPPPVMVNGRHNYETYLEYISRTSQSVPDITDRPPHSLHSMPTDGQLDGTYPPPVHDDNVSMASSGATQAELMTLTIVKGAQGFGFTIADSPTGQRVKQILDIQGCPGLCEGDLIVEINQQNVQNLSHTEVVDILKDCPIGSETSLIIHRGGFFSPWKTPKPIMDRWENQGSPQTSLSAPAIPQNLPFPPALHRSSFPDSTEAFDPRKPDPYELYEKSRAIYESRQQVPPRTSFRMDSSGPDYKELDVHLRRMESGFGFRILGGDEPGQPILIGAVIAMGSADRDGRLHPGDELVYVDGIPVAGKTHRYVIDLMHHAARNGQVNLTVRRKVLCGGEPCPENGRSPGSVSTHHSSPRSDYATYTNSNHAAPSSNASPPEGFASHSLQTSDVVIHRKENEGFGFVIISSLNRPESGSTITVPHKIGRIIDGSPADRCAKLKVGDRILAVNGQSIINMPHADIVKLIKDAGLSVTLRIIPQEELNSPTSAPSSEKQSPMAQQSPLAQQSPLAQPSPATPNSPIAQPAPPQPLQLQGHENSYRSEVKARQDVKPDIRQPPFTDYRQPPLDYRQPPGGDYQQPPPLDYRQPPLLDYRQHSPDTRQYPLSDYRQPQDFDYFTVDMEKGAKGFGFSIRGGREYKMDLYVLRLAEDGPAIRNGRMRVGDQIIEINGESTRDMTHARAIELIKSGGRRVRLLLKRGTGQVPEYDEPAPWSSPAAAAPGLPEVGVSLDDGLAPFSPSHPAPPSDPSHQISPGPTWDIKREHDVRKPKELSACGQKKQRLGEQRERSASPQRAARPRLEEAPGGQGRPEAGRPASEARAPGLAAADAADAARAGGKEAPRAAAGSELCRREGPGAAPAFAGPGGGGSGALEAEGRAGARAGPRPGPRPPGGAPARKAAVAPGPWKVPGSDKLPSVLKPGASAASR
T1 sequence (Q8NI35 whole entry, the tested form may be a part): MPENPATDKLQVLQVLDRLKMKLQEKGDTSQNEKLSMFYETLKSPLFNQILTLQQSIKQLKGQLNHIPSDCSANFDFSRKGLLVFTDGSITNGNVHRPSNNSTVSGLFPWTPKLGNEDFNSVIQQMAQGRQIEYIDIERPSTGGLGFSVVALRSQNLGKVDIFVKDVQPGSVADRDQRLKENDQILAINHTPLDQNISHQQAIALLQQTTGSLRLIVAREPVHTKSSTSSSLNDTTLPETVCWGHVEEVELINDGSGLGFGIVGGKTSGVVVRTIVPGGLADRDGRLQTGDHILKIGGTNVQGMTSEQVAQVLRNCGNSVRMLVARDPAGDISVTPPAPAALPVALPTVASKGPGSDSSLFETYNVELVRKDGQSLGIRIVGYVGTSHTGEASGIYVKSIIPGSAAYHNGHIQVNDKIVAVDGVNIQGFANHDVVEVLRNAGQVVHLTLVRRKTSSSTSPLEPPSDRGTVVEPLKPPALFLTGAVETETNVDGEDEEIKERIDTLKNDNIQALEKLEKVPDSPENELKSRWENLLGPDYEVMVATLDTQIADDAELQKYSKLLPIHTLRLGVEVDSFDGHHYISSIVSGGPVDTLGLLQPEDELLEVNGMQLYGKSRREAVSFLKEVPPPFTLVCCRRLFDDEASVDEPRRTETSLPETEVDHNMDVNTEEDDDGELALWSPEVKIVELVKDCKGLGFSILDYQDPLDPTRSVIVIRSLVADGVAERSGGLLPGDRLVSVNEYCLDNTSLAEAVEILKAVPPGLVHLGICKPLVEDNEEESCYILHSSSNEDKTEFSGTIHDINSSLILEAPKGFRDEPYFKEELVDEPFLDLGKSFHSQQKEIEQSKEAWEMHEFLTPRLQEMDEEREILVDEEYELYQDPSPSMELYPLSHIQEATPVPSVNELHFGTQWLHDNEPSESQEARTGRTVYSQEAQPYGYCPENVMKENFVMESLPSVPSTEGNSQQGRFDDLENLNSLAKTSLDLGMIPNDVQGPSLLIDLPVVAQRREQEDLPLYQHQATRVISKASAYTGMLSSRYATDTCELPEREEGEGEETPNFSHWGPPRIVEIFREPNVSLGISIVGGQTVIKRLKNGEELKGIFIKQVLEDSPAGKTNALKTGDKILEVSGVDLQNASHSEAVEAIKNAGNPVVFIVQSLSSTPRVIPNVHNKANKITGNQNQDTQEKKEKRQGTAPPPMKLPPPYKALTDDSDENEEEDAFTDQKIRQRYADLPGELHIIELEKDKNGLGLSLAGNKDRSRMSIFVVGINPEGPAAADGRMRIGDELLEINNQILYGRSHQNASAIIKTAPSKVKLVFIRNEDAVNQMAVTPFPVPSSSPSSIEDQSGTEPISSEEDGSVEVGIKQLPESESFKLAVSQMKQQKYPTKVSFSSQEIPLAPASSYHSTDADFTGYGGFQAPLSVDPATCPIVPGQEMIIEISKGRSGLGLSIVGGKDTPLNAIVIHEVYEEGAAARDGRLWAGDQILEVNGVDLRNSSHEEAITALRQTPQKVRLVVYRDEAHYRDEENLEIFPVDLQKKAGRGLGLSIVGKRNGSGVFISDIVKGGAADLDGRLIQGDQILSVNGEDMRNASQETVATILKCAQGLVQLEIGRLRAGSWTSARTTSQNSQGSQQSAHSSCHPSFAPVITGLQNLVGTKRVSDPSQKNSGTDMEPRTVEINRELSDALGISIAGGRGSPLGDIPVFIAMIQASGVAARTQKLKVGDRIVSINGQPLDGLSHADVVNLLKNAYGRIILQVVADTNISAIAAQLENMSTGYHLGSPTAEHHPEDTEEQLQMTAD

For the compound TQGFPGPATWRRISSLESEV, the Classification in assay [1] (PDZ Domain 3) is recorded as 2 (A450 nm 1-2); in assay [1] (PDZ Domain 5), 1 (A450 nm 0-1); in assay [1] (PDZ Domain 8), 1 (A450 nm 0-1); in assay [2], 5 (A450 nm of 4 more than 2× repeated); in assay [3] it was 5 (A450 nm of 4 more than 2× repeated); in assay [4] (PDZ DLG1, PDZ Domain 1), 5 (A450 nm of 4 more than 2× repeated). Besides, the Classification is on record as 5 (A450 nm of 4 more than 2× repeated) in assay [4] (PDZ DLG1, PDZ Domain 1, 2); 5 (A450 nm of 4 more than 2× repeated) in assay [4] (PDZ DLG1, PDZ Domain 2); 1 (A450 nm 0-1) in assay [5]; 5 (A450 nm of 4 more than 2× repeated) in assay [6] (setting [8]); 5 (A450 nm of 4 more than 2× repeated) in assay [6] (setting [9]); 2 (A450 nm 1-2) in assay [6] (setting [10]).

For the compound `CC[C@H](C)[C@H](NC(=O)[C@H](CCCCN)NC(=O)[C@@H](NC(=O)[C@H](CO)NC(=O)[C@@H]1CCCN1C(=O)[C@H](Cc1ccccc1)NC(=O)[C@@H](NC(=O)[C@@H](NC(=O)[C@H](CCCNC(=N)N)NC(=O)[C@H](CCC(=O)O)NC(=O)[C@H](CC(C)C)NC(=O)[C@H](CC(C)C)NC(=O)[C@H](CC(C)C)NC(=O)[C@@H](NC(=O)CNC(=O)[C@@H](NC(=O)CCCC[C@@H]1SC[C@@H]2NC(=O)N[C@@H]21)C(C)C)[C@@H](C)O)C(C)C)[C@@H](C)CC)C(C)C)C(=O)N[C@@H](C)C(=O)N[C@H](C(=O)N[C@@H](CC(C)C)C(=O)N[C@H](C(=O)O)C(C)C)[C@@H](C)O` [Adenovirus E4 Type9], the Classification was 2 (A450 nm 1-2) in assay [1] (PDZ Domain 8, PL peptide 10 uM); 5 (A450 nm of 4 more than 2× repeated) in assay [2] (Protein Optimal Conc 5); 5 (A450 nm of 4 more than 2× repeated) in assay [4] (PDZ DLG1, PDZ Domain 1, 2, PL peptide 10 uM); 4 (A450 nm 3-4) in assay [4] (PDZ DLG1, PDZ Domain 1, Protein Optimal Conc 0.5); 5 (A450 nm of 4 more than 2× repeated) in assay [4] (PDZ DLG1, PDZ Domain 2, Protein Optimal Conc 0.3); 1 (A450 nm 0-1) in assay [5] (PL peptide 10 uM). Also, the Classification is on record as 5 (A450 nm of 4 more than 2× repeated) in assay [6] (PDZ atrophin-1 interacting Protein, PDZ Domain 1, Protein Optimal Conc 0.5) and 4 (A450 nm 3-4) in assay [6] (PDZ atrophin-1 interacting Protein, PDZ Domain 3, Protein Optimal Conc 5).

With `CC[C@H](C)[C@H](NC(=O)[C@H](Cc1ccc(O)cc1)NC(=O)[C@@H](NC(=O)[C@@H]1CCCN1C(=O)[C@H](CCC(N)=O)NC(=O)[C@H](CCC(=O)O)NC(=O)[C@H](CCC(N)=O)NC(=O)[C@H](C)NC(=O)[C@@H](NC(=O)[C@H](CC(C)C)NC(=O)[C@H](CC(C)C)NC(=O)[C@H](CCCNC(=N)N)NC(=O)[C@H](Cc1ccc(O)cc1)NC(=O)[C@H](CCSC)NC(=O)[C@H](C)NC(=O)[C@H](C)NC(=O)[C@@H]1CCCN1C(=O)[C@H](CCSC)NC(=O)[C@@H](NC(=O)[C@H](CCCCN)NC(=O)CCCC[C@@H]1SC[C@@H]2NC(=O)N[C@@H]21)[C@@H](C)O)[C@@H](C)O)C(C)C)C(=O)O` [MINT-1] (Biotin-KTMPAAMYRLLTAQEQPVYI-OH; C-terminus assumed), the Classification in assay [1] (PDZ Domain 8) and in assay [5] was 1 (A450 nm 0-1) each time.

Take “ARHRVTSYTSSSVNVSSNL (Biotin-ARHRVTSYTSSSVNVSSNL) [IL-8RB]”: the Classification in assay [7] and in assay [3] was 1 (A450 nm 0-1) in each case.

For `CC(C)C[C@H](NC(=O)CNC(=O)[C@@H](NC(=O)[C@H](CO)NC(=O)[C@H](CC(N)=O)NC(=O)[C@H](Cc1ccccc1)NC(=O)CNC(=O)[C@H](C)NC(=O)[C@H](C)NC(=O)[C@H](Cc1ccccc1)NC(=O)[C@@H](NC(=O)CCCC[C@@H]1SC[C@@H]2NC(=O)N[C@@H]21)[C@@H](C)O)[C@@H](C)O)C(=O)N1CCC[C@H]1C(=O)N[C@@H](Cc1c[nH]cn1)C(=O)N[C@@H](CO)C(=O)N[C@H](C(=O)N[C@H](C(=O)N[C@@H](CCCNC(=N)N)C(=O)N[C@H](C(=O)O)C(C)C)[C@@H](C)O)[C@@H](C)O` [Neuroligin] (Biotin-TFAAGFNSTGLPHSTTRV-OH; C-terminus assumed), the Classification in assay [7] is given as 3 (A450 nm 2-3); in assay [1] (PDZ Domain 8), 1 (A450 nm 0-1); in assay [3], 1 (A450 nm 0-1); in assay [4] (PDZ DLG1, PDZ Domain 1, 2), 2 (A450 nm 1-2); in assay [6] (setting [9]) it was 2 (A450 nm 1-2).

Turning to `CC[C@H](C)[C@H](NC(=O)CNC(=O)[C@H](CO)NC(=O)[C@H](Cc1ccccc1)NC(=O)[C@@H](NC(=O)[C@H](CS)NC(=O)CNC(=O)CNC(=O)[C@H](C)NC(=O)[C@@H]1CCCN1C(=O)[C@@H](NC(=O)[C@@H]1CCCN1C(=O)CCCC[C@@H]1SC[C@@H]2NC(=O)N[C@@H]21)[C@@H](C)CC)[C@@H](C)O)C(=O)N[C@@H](Cc1ccccc1)C(=O)N1CCC[C@H]1C(=O)N[C@H](C(=O)N[C@@H](CC(C)C)C(=O)N[C@H](C(=O)N[C@@H](CO)C(=O)N1CCC[C@H]1C(=O)N[C@@H](CC(C)C)C(=O)O)[C@@H](C)O)[C@@H](C)O` [KIA 1481] (Biotin-PIPAGGCTFSGIFPTLTSPL-OH; C-terminus assumed), the figures for the Classification in assay [1] (PDZ Domain 5), in assay [3] and in assay [5] were 1 (A450 nm 0-1), 2 (A450 nm 1-2) and 5 (A450 nm of 4 more than 2× repeated), respectively.

Consider `CSCC[C@H](NC(=O)[C@H](C)NC(=O)[C@H](CCCNC(=N)N)NC(=O)CNC(=O)[C@@H](NC(=O)[C@H](Cc1c[nH]c2ccccc12)NC(=O)[C@H](CCCNC(=N)N)NC(=O)CNC(=O)CCCC[C@@H]1SC[C@@H]2NC(=O)N[C@@H]21)[C@@H](C)O)C(=O)N[C@@H](CO)C(=O)N[C@@H](C)C(=O)N[C@@H](Cc1c[nH]c2ccccc12)C(=O)N[C@@H](CCCCN)C(=O)N1CCC[C@H]1C(=O)N[C@H](C(=O)N[C@@H](CCCNC(=N)N)C(=O)N[C@@H](CCCNC(=N)N)C(=O)N[C@@H](CCC(=O)O)C(=O)N[C@H](C(=O)N[C@@H](CCC(=O)O)C(=O)N[C@H](C(=O)O)C(C)C)[C@@H](C)O)[C@@H](C)O` [HPV E6 #35 (modified)] (Biotin-GRWTGRAMSAWKPTRRETEV-OH; C-terminus assumed), for which the Classification in assay [1] (PDZ Domain 3) is recorded as 1 (A450 nm 0-1); in assay [1] (PDZ Domain 5) it was 1 (A450 nm 0-1); in assay [1] (PDZ Domain 8), 4 (A450 nm 3-4); in assay [2] it was 5 (A450 nm of 4 more than 2× repeated); in assay [3], 5 (A450 nm of 4 more than 2× repeated); in assay [4] (PDZ DLG1, PDZ Domain 1) it was 5 (A450 nm of 4 more than 2× repeated). The Classification in assay [4] (PDZ DLG1, PDZ Domain 1, 2) is reported as 5 (A450 nm of 4 more than 2× repeated); in assay [4] (PDZ DLG1, PDZ Domain 2), 5 (A450 nm of 4 more than 2× repeated); in assay [4] (PDZ DLG1, PDZ Domain 3) it was 3 (A450 nm 2-3); in assay [5], 2 (A450 nm 1-2); in assay [6] (setting [8]) it was 4 (A450 nm 3-4); in assay [6] (PDZ atrophin-1 interacting Protein (Atrophin-1 Inter. Prot.), PDZ Domain 1), 5 (A450 nm of 4 more than 2× repeated). For the same compound, the Classification in assay [6] (PDZ atrophin-1 interacting Protein, PDZ Domain 2) is reported as 1 (A450 nm 0-1); in assay [6] (setting [10]), 4 (A450 nm 3-4).

As for “APC—adenomatous polyposis coli protein (ESSGTQSPKRHSGSYLVTSV)”, the Classification in assay [1] (PDZ Domain 8) is given as 2 (A450 nm 1-2); in assay [2], 2 (A450 nm 1-2); in assay [3], 3 (A450 nm 2-3); in assay [4] (PDZ DLG1, PDZ Domain 1, 2), 5 (A450 nm of 4 more than 2× repeated); in assay [5] it was 1 (A450 nm 0-1).
